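How tested: cells in 96-well plates exposed to compound for 48 hours at five concentrations. Here, GI50 denotes the concentration required for 50% inhibition of growth. TGI: concentration producing complete growth inhibition.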
Assays:
Experiment in all cases: DTP human tumour cell line panel, 48 h
786-0 renal = tested on: 786-0 renal
A549 NSCLC = tested on: A549 NSCLC
ACHN renal = tested on: ACHN renal
BT-549 breast = tested on: BT-549 breast
CAKI-1 renal = tested on: CAKI-1 renal
CCRF-CEM leukemia = tested on: CCRF-CEM leukemia
COLO 205 colon = tested on: COLO 205 colon
DU-145 prostate = tested on: DU-145 prostate
EKVX NSCLC = tested on: EKVX NSCLC
HCC-2998 colon = tested on: HCC-2998 colon
HCT-116 colon = tested on: HCT-116 colon
HCT-15 colon = tested on: HCT-15 colon
HOP-62 NSCLC = tested on: HOP-62 NSCLC
HS 578T breast = tested on: HS 578T breast
HT29 colon = tested on: HT29 colon
IGROV1 ovarian = tested on: IGROV1 ovarian
K-562 leukemia = tested on: K-562 leukemia
KM12 colon = tested on: KM12 colon
LOX IMVI melanoma = tested on: LOX IMVI melanoma
M14 melanoma = tested on: M14 melanoma
MALME-3M melanoma = tested on: MALME-3M melanoma
MCF7 breast = tested on: MCF7 breast
MDA-MB-231 breast = tested on: MDA-MB-231 breast
MDA-MB-435 = tested on: MDA-MB-435
NCI-H226 lung = tested on: NCI-H226 lung
NCI-H23 lung = tested on: NCI-H23 lung
NCI-H460 lung = tested on: NCI-H460 lung
NCI-H522 lung = tested on: NCI-H522 lung
NCI/ADR-RES ovarian = tested on: NCI/ADR-RES ovarian
OVCAR-3 ovarian = tested on: OVCAR-3 ovarian
OVCAR-4 ovarian = tested on: OVCAR-4 ovarian
OVCAR-5 ovarian = tested on: OVCAR-5 ovarian
OVCAR-8 ovarian = tested on: OVCAR-8 ovarian
PC-3 prostate = tested on: PC-3 prostate
RPMI-8226 leukemia = tested on: RPMI-8226 leukemia
RXF 393 renal = tested on: RXF 393 renal
SF-268 CNS = tested on: SF-268 CNS
SF-295 CNS = tested on: SF-295 CNS
SF-539 CNS = tested on: SF-539 CNS
SK-MEL-2 melanoma = tested on: SK-MEL-2 melanoma
SK-MEL-28 melanoma = tested on: SK-MEL-28 melanoma
SK-MEL-5 melanoma = tested on: SK-MEL-5 melanoma
SK-OV-3 ovarian = tested on: SK-OV-3 ovarian
SN12C renal = tested on: SN12C renal
SNB-19 CNS = tested on: SNB-19 CNS
SNB-75 CNS = tested on: SNB-75 CNS
SW-620 colon = tested on: SW-620 colon
T-47D breast = tested on: T-47D breast
TK-10 renal = tested on: TK-10 renal
U251 CNS = tested on: U251 CNS
UACC-257 melanoma = tested on: UACC-257 melanoma
UACC-62 melanoma = tested on: UACC-62 melanoma
UO-31 renal = tested on: UO-31 renal

Question: Cc1ccc(C2=C(c3ccc(C)cc3)C3(c4ccc(C)cc4)[C@@H](C#N)[C@H](C#N)C2(c2ccc(C)cc2)S3=O)cc1 (stereo partly specified) was tested. Which GI50 (786-0 renal) did it give?
Answer: > 100 µM

Question: What about the TGI (786-0 renal) of the same molecule?
Answer: > 100 µM

Question: And the GI50 (A549 NSCLC)?
Answer: > 100 µM

Question: And the TGI (A549 NSCLC)?
Answer: > 100 µM

Question: And the GI50 (ACHN renal)?
Answer: > 100 µM

Question: What about the TGI (ACHN renal) of the same molecule?
Answer: > 100 µM

Question: And the GI50 (BT-549 breast)?
Answer: > 100 µM

Question: And the TGI (BT-549 breast)?
Answer: > 100 µM

Question: What about the GI50 (CAKI-1 renal) of the same molecule?
Answer: > 100 µM

Question: And the TGI (CAKI-1 renal)?
Answer: > 100 µM

Question: And the GI50 (CCRF-CEM leukemia)?
Answer: > 100 µM

Question: What about the TGI (CCRF-CEM leukemia) of the same molecule?
Answer: > 100 µM

Question: What about the GI50 (COLO 205 colon) of the same molecule?
Answer: > 100 µM

Question: What about the TGI (COLO 205 colon) of the same molecule?
Answer: > 100 µM

Question: What about the GI50 (DU-145 prostate) of the same molecule?
Answer: > 100 µM

Question: What about the TGI (DU-145 prostate) of the same molecule?
Answer: > 100 µM

Question: What about the GI50 (EKVX NSCLC) of the same molecule?
Answer: > 100 µM

Question: What about the TGI (EKVX NSCLC) of the same molecule?
Answer: > 100 µM

Question: What about the GI50 (HCC-2998 colon) of the same molecule?
Answer: > 100 µM

Question: What about the TGI (HCC-2998 colon) of the same molecule?
Answer: > 100 µM

Question: What about the GI50 (HCT-116 colon) of the same molecule?
Answer: 48.5 µM

Question: And the TGI (HCT-116 colon)?
Answer: > 100 µM

Question: And the GI50 (HCT-15 colon)?
Answer: > 100 µM

Question: And the TGI (HCT-15 colon)?
Answer: > 100 µM

Question: And the GI50 (HOP-62 NSCLC)?
Answer: > 100 µM

Question: And the TGI (HOP-62 NSCLC)?
Answer: > 100 µM

Question: And the GI50 (HS 578T breast)?
Answer: > 100 µM

Question: And the TGI (HS 578T breast)?
Answer: > 100 µM

Question: And the GI50 (HT29 colon)?
Answer: > 100 µM

Question: What about the TGI (HT29 colon) of the same molecule?
Answer: > 100 µM

Question: What about the GI50 (IGROV1 ovarian) of the same molecule?
Answer: > 100 µM

Question: And the TGI (IGROV1 ovarian)?
Answer: > 100 µM

Question: What about the GI50 (K-562 leukemia) of the same molecule?
Answer: 2.02 µM

Question: And the TGI (K-562 leukemia)?
Answer: > 100 µM

Question: What about the GI50 (KM12 colon) of the same molecule?
Answer: > 100 µM

Question: And the TGI (KM12 colon)?
Answer: > 100 µM

Question: And the GI50 (LOX IMVI melanoma)?
Answer: > 100 µM

Question: And the TGI (LOX IMVI melanoma)?
Answer: > 100 µM

Question: What about the GI50 (M14 melanoma) of the same molecule?
Answer: 30.1 µM

Question: And the TGI (M14 melanoma)?
Answer: > 100 µM

Question: And the GI50 (MALME-3M melanoma)?
Answer: > 100 µM

Question: What about the TGI (MALME-3M melanoma) of the same molecule?
Answer: > 100 µM

Question: And the GI50 (MCF7 breast)?
Answer: > 100 µM

Question: And the TGI (MCF7 breast)?
Answer: > 100 µM

Question: What about the GI50 (MDA-MB-231 breast) of the same molecule?
Answer: > 100 µM

Question: And the TGI (MDA-MB-231 breast)?
Answer: > 100 µM

Question: What about the GI50 (MDA-MB-435) of the same molecule?
Answer: > 100 µM

Question: What about the TGI (MDA-MB-435) of the same molecule?
Answer: > 100 µM

Question: What about the GI50 (NCI-H226 lung) of the same molecule?
Answer: > 100 µM

Question: And the TGI (NCI-H226 lung)?
Answer: > 100 µM

Question: What about the GI50 (NCI-H23 lung) of the same molecule?
Answer: > 100 µM

Question: And the TGI (NCI-H23 lung)?
Answer: > 100 µM

Question: What about the GI50 (NCI-H460 lung) of the same molecule?
Answer: > 100 µM

Question: And the TGI (NCI-H460 lung)?
Answer: > 100 µM

Question: What about the GI50 (NCI-H522 lung) of the same molecule?
Answer: > 100 µM

Question: What about the TGI (NCI-H522 lung) of the same molecule?
Answer: > 100 µM

Question: What about the GI50 (NCI/ADR-RES ovarian) of the same molecule?
Answer: > 100 µM

Question: And the TGI (NCI/ADR-RES ovarian)?
Answer: > 100 µM

Question: And the GI50 (OVCAR-3 ovarian)?
Answer: > 100 µM

Question: What about the TGI (OVCAR-3 ovarian) of the same molecule?
Answer: > 100 µM

Question: And the GI50 (OVCAR-4 ovarian)?
Answer: > 100 µM

Question: And the TGI (OVCAR-4 ovarian)?
Answer: > 100 µM

Question: And the GI50 (OVCAR-5 ovarian)?
Answer: > 100 µM

Question: And the TGI (OVCAR-5 ovarian)?
Answer: > 100 µM

Question: What about the GI50 (OVCAR-8 ovarian) of the same molecule?
Answer: > 100 µM

Question: And the TGI (OVCAR-8 ovarian)?
Answer: > 100 µM

Question: What about the GI50 (PC-3 prostate) of the same molecule?
Answer: > 100 µM

Question: And the TGI (PC-3 prostate)?
Answer: > 100 µM

Question: And the GI50 (RPMI-8226 leukemia)?
Answer: > 100 µM

Question: What about the TGI (RPMI-8226 leukemia) of the same molecule?
Answer: > 100 µM

Question: And the GI50 (RXF 393 renal)?
Answer: > 100 µM

Question: What about the TGI (RXF 393 renal) of the same molecule?
Answer: > 100 µM

Question: And the GI50 (SF-268 CNS)?
Answer: > 100 µM

Question: What about the TGI (SF-268 CNS) of the same molecule?
Answer: > 100 µM

Question: And the GI50 (SF-295 CNS)?
Answer: > 100 µM

Question: What about the TGI (SF-295 CNS) of the same molecule?
Answer: > 100 µM

Question: And the GI50 (SF-539 CNS)?
Answer: > 100 µM

Question: What about the TGI (SF-539 CNS) of the same molecule?
Answer: > 100 µM

Question: What about the GI50 (SK-MEL-2 melanoma) of the same molecule?
Answer: > 100 µM

Question: What about the TGI (SK-MEL-2 melanoma) of the same molecule?
Answer: > 100 µM

Question: What about the GI50 (SK-MEL-28 melanoma) of the same molecule?
Answer: > 100 µM

Question: And the TGI (SK-MEL-28 melanoma)?
Answer: > 100 µM

Question: What about the GI50 (SK-MEL-5 melanoma) of the same molecule?
Answer: > 100 µM

Question: And the TGI (SK-MEL-5 melanoma)?
Answer: > 100 µM

Question: And the GI50 (SK-OV-3 ovarian)?
Answer: > 100 µM

Question: And the TGI (SK-OV-3 ovarian)?
Answer: > 100 µM

Question: And the GI50 (SN12C renal)?
Answer: > 100 µM

Question: What about the TGI (SN12C renal) of the same molecule?
Answer: > 100 µM

Question: What about the GI50 (SNB-19 CNS) of the same molecule?
Answer: > 100 µM

Question: What about the TGI (SNB-19 CNS) of the same molecule?
Answer: > 100 µM

Question: What about the GI50 (SNB-75 CNS) of the same molecule?
Answer: > 100 µM

Question: And the TGI (SNB-75 CNS)?
Answer: > 100 µM

Question: What about the GI50 (SW-620 colon) of the same molecule?
Answer: > 100 µM

Question: And the TGI (SW-620 colon)?
Answer: > 100 µM

Question: And the GI50 (T-47D breast)?
Answer: > 100 µM

Question: What about the TGI (T-47D breast) of the same molecule?
Answer: > 100 µM

Question: What about the GI50 (TK-10 renal) of the same molecule?
Answer: > 100 µM

Question: And the TGI (TK-10 renal)?
Answer: > 100 µM

Question: What about the GI50 (U251 CNS) of the same molecule?
Answer: > 100 µM

Question: And the TGI (U251 CNS)?
Answer: > 100 µM

Question: And the GI50 (UACC-257 melanoma)?
Answer: > 100 µM

Question: And the TGI (UACC-257 melanoma)?
Answer: > 100 µM

Question: What about the GI50 (UACC-62 melanoma) of the same molecule?
Answer: > 100 µM

Question: What about the TGI (UACC-62 melanoma) of the same molecule?
Answer: > 100 µM

Question: And the GI50 (UO-31 renal)?
Answer: > 100 µM

Question: And the TGI (UO-31 renal)?
Answer: > 100 µM

— PubChem BioAssay (NCI)
